Like-named read-outs stand apart in the source and are kept apart here.
Legend:
[1] = test system: FFAR1 H137A and L186A mutants; assay: Ca2+ influx assay, FFAR1 point mutants in transfected HEK293T cells; type: cell-based; conditions: for change of EC50 in mutants versus wild-type: range over fasiglifam and GW9508 and both mutants
Procedure: (§1) FLAG-tagged FFAR1 was constructed using a two-step procedure. Initially, untagged FFAR1-pcDNA3.1 was amplified using the forward primer ([…]) and the reverse primer ([…]) to insert a FLAG epitope at the N terminus of the receptor. Following this, the polymerase chain reaction (PCR) product was purified and ligated into a pcDNA3.1 vector. Mutations were made using the QuikChange Site-Directed Mutagenesis Kit (Stratagene) and verified by sequencing.
(§2) For stable CHO cell lines, cells were seeded in black-walled clear-bottomed 96-well cell culture plates (Costar) and incubated overnight in 5% CO2 at 37°C. Otherwise, HEK293T cells were transiently transfected with expression plasmids using Trans-IT (Mirus) or Lipofectamine 2000, followed by plating in poly-D-lysine-coated black clear 96-well plates (BD Falcon) and incubated for 2 days. These cells were then incubated at 37°C for 1 h in HEPES-buffered Hank’s balanced salt solution (pH 7.4) containing 2.5 mM probenecid, 1% FBS, and 4 µM fluo-3 AM (Dojindo). Following this, the cells were washed four times with the solution without fluo-3 AM. Intracellular Ca^2+ concentrations were measured before and after adding samples using FLIPR (Molecular Devices). Assays were performed in the absence of bovine serum albumin (BSA). EC50, 95% confidence interval and Emax values for each curve were calculated by data analysis using 4-parameter logistic equation in Prism 5 software (GraphPad Software).

[2] = test system: FFAR1 R183A and R258A mutants; assay: as above; type: cell-based
Procedure: as §1, §2

[3] = test system: FFAR1 Y91A and N244A mutants; assay: as above; type: cell-based
Procedure: as §1, §2

[4] = test system: N-STZ-1.5 rats; assay: Oral glucose tolerance test in diabetic N-STZ-1.5 rats; type: in vivo, rat
Procedure: Blood samples were collected from the tail vein before drug administration (pre), before glucose load (time 0), and 10, 30, 60, and 120 min after the glucose load. Plasma glucose and FFA levels were measured using Autoanalyzer 7080 (Hitachi, Japan), and insulin levels were measured using the Rat Insulin ELISA Kit (Morinaga, Japan). All procedures were conducted according to the Experimental Animal Care and Use Committee of Takeda Pharmaceutical Company Limited.

[5] = molecular target: T1, hFFAR1 (Homo sapiens, UniProt O14842); assay: Ca2+ mobilization assay (FLIPR) in CHO cells stably expressing hFFAR1; type: cell-based; conditions: for agonistic activity, Ca2+ influx: hFFAR1/CHO cells (clone #104)
T1 construct: expressed in transfected cells
Procedure: Cells were selected by culturing in nucleotide-free alpha-minimum essential medium (α-MEM; Invitrogen) supplemented with 10% dialyzed and heat-inactivated fetal bovine serum (FBS; Invitrogen), 100 IU/mL penicillin, and 100 µg/mL streptomycin (Invitrogen). […] The murine pancreatic β cell line MIN6 cells were kindly provided by Dr. Miyazaki. […] Cells were cultured in a humidified atmosphere containing 5% CO2/95% air at 37°C.
as §2, with “(BSA).” for “(BSA). EC50, 95% confidence interval and Emax values for each curve were calculated by data analysis using 4-parameter logistic equation in Prism 5 software (GraphPad Software).”

[6] = molecular target: T2, mFFAR1 (Mus musculus, UniProt Q76JU9); assay: Ca2+ mobilization assay (FLIPR) in CHO cells stably expressing mFFAR1; type: cell-based
T2 construct: expressed in transfected cells
Procedure: To establish CHO cells (dhfr−) stably expressing hFFAR1 or mFFAR1, CHO/dhfr− (ATCC catalog # CRL-9096) cells were transfected with hFFAR1-pAKKO-111H or mFFAR1-pAKKO-111H plasmid using Lipofectamine 2000 (Invitrogen). Cells were selected by culturing in nucleotide-free alpha-minimum essential medium (α-MEM; Invitrogen) supplemented with 10% dialyzed and heat-inactivated fetal bovine serum (FBS; Invitrogen), 100 IU/mL penicillin, and 100 µg/mL streptomycin (Invitrogen). HEK293T (ATCC catalog # CRL-11268) cells were cultured in Dulbecco’s modified Eagle’s medium (DMEM, Invitrogen) supplemented with 10% heat-inactivated FBS, 100 IU/mL penicillin, and 100 µg/mL streptomycin. The murine pancreatic β cell line MIN6 cells were kindly provided by Dr. Miyazaki. MIN6 cells were grown in DMEM containing 10% heat-inactivated FBS, 100 IU/mL penicillin, 100 µg/mL streptomycin, and 55 µmol/L 2-mercaptoethanol (Invitrogen). Cells were cultured in a humidified atmosphere containing 5% CO2/95% air at 37°C.
For stable CHO cell lines, cells were seeded in black-walled clear-bottomed 96-well cell culture plates (Costar) and incubated overnight in 5% CO2 at 37°C. […] Intracellular Ca^2+ concentrations were measured before and after adding samples using FLIPR (Molecular Devices). […]

[7] = molecular target: T1, hFFAR1; assay: Ca2+ influx in HEK293T cells transiently transfected with varying amounts of hFFAR1 plasmid; type: cell-based; conditions: 100 ng to 1 ng hFFAR1 plasmid, compared with γ-LA
Procedure: as §2
Supplementary file pone.0076280.s002.tif: Figure S2 Relative efficacy of fasiglifam is affected by FFAR1/GPR40 expression levels in transient HEK293T cells. Relative Ca^2+ influx activities of fasiglifam and γ-linolenic acid (γ-LA) were measured in HEK293T cells transiently transfected with 100 ng (A), 30 ng (B), 10 ng (C), 3 ng (D), and 1 ng (E) of hFFAR1 expression plasmids. Error bars indicate s.e.m. […]

[8] = test system: MIN6 cells; assay: Insulin secretion assay in MIN6 cells; type: cell-based, mouse; conditions: 16 mM glucose
Procedure: MIN6 cells were seeded at a density of 6 × 10^4 cells/well in 96-well plates (BD Falcon), and cells were cultured in the growth medium described above for 2 days before experiments. After discarding the medium, cells were preincubated for 2 h at 37°C with 200 µL of Krebs-Ringer bicarbonate–HEPES (KRBH) buffer (116 mmol/L NaCl, 4.7 mmol/L KCl, 1.17 mmol/L KH2PO4, 1.17 mmol/L MgSO4, 25 mmol/L NaHCO3, 2.52 mmol/L CaCl2, and 24 mmol/L HEPES) containing 0.2% BSA and 1 mmol/L glucose. After discarding the preincubation buffer, KRBH containing 0.2% BSA, 16 mmol/L glucose, and stimulators as shown was added and the plate was incubated for 2 h at 37°C. After incubation, supernatants from each well were collected and secreted insulin concentrations were measured using alphaLISA (PerkinElmer) according to the manufacturer’s instruction.

[9] = test system: wild-type mouse islets; assay: Insulin secretion in wild-type mouse islets; type: cell-based; conditions: 16 mM glucose
[10] = test system: FFAR1-knockout mouse islets; assay: Insulin secretion in FFAR1-knockout mouse islets; type: cell-based; conditions: 16 mM glucose
[11] = test system: rat insulinoma cells; design: method as in PMID 21752941; conditions: prolonged exposure to fasiglifam alone; cited from earlier work
[12] = test system: MIN6 cells; assay: Caspase 3/7 activity in MIN6 cells (lipotoxicity); conditions: 72-h exposure, palmitic acid 0.25–1 mM
Procedure: (§3) Caspase 3/7 activity in MIN6 cells was measured according to a previously described method (8). In brief, MIN6 cells were seeded at a density of 2 × 10^4 cells/well in a 96-well black clear plate (CORNING) and cultured overnight. After discarding the medium, 1% BSA, palmitic acid–BSA conjugate (0.25, 0.5, and 1 mM) or γ-LA–BSA conjugate (0.25, 0.5, and 1 mM) in combination with 0.1% DMSO or fasiglifam (0.1, 1, and 10 µM) were added to the plates and cultured for 72 h. After incubation, caspase 3/7 activity was measured using the Apo-one Homogeneous Caspase 3/7 assay (Promega) according to the manufacturers’ instructions. Fluorescent intensity was measured at excitation and emission wavelengths of 485 nm and 535 nm, respectively (Wallac 1420 ARVO SX Multilabel Counter; PerkinElmer).

[13] = test system: MIN6 cells; conditions: mouse, 72 h, 1 mM
Procedure: as §3

T1 sequence (O14842 whole entry): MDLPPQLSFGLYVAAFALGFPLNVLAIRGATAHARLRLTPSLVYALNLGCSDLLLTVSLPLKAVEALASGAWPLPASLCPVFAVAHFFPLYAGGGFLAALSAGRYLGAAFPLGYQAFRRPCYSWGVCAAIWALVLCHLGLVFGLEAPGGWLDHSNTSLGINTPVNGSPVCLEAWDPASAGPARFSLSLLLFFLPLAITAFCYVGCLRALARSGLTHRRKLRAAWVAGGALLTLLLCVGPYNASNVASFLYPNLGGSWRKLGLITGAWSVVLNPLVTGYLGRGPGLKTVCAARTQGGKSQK
T2 sequence (Q76JU9 whole entry): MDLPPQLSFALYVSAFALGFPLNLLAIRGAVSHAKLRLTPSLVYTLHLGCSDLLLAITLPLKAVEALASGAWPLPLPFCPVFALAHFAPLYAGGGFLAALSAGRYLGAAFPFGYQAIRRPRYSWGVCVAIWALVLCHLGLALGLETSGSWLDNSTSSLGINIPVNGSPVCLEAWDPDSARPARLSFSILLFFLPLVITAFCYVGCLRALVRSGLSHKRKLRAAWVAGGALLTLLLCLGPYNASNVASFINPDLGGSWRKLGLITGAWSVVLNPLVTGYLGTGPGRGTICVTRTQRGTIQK

O=C(O)CCc1ccc(NCc2cccc(Oc3ccccc3)c2)cc1 [GW9508]
change of EC50 in mutants versus wild-type [1]: 7.7- to 130 fold | Ca2+ influx response of mutants [2]: almost completely unresponsive | effect of mutations on potency [3]: more drastic

Cc1cnc(C(=O)O)c[n+]1[O-] [acipimox]
plasma FFA levels ([4]; acipimox 30 mg/kg oral, N-STZ-1.5 rats, OGTT): rapid decrease | glucose tolerance ([4]; acipimox alone 30 mg/kg, OGTT, N-STZ-1.5 rats): improved glucose tolerance | plasma FFA level after reduction with acipimox ([4]; diabetic rats, acipimox): approximately 0.2 mEq/L

Cc1cc(OCCCS(C)(=O)=O)cc(C)c1-c1cccc(COc2ccc3c(c2)OC[C@H]3CC(=O)O)c1.Cc1cc(OCCCS(C)(=O)=O)cc(C)c1-c1cccc(COc2ccc3c(c2)OC[C@H]3CC(=O)O)c1.O [fasiglifam, [(3S)-6-({2′,6′-dimethyl-4′-[3-(methylsulfonyl)propoxy]biphenyl-3-yl}methoxy)-2,3-dihydro-1-benzofuran-3-yl] acetic acid hemihydrate]
agonistic activity, Ca2+ influx [5]: higher potency than FFAs | effect of simultaneous γ-LA on fasiglifam Ca2+ activity ([5]; hFFAR1/CHO clone #2, increasing doses of γ-LA): remarkable potentiation | Emax, Ca2+ mobilization [6]: lower Emax than γ-LA | maximal response as amount of transfection plasmid decreased [7]: dramatically decreased | change of EC50 in mutants versus wild-type [1]: 7.7- to 130 fold | Ca2+ influx response of mutants [2]: almost unresponsive | effect of mutations on potency [3]: more drastic | increase in the maximal response of fasiglifam (insulin secretion) by γ-LA ([8]; γ-LA 100 µM): 1.5–2 fold | effect of γ-LA on insulinotropic activity of fasiglifam [9]: dramatic improvement | insulinotropic effect in FFAR1-knockout islets [10]: completely abolished | insulinotropic action in acipimox-treated rats ([4]; fasiglifam 10 mg/kg + acipimox 30 mg/kg, OGTT): significantly suppressed | plasma insulin (insulinotropic effect) versus vehicle ([4]; fasiglifam alone 10 mg/kg oral, at 0, 10, and 30 min of OGTT): significant insulinotropic effects | effect on apoptosis [11]: no effect on apoptosis

CCC1=C(C)CN(C(=O)NCCc2ccc(S(=O)(=O)NC(=O)N[C@H]3CC[C@H](C)CC3)cc2)C1=O [glimepiride]
insulinotropic effect in FFAR1-knockout islets [10]: not affected

CCCCCCCCCCCCCC(=O)O [myristic acid]
agonistic activity, Ca2+ influx [5]: partial activities

CCCCCCCCCCCCCCCC(=O)O [palmitic acid]
agonistic activity, Ca2+ influx [5]: partial activities | caspase 3/7 activity [12]: increased caspase 3/7 activity in a dose-dependent manner

CCCCC/C=C\C/C=C\C/C=C\CCCCC(=O)O [γ-LA, γ-linolenic acid]
agonistic activity, Ca2+ influx [5]: full agonistic activity | EC50 ([5]; hFFAR1/CHO clone #2, without fasiglifam, read-out: EC50 of γ-LA response (Ca2+ influx)): 5.39 µM | activity in mutants versus wild-type [1]: remained almost unchanged | Ca2+ influx response of mutants [2]: relatively less affected | insulin secretion, compound alone ([8]; 0.2% BSA): could not significantly potentiate insulin secretion | caspase 3/7 activity [13]: significant enhancements of caspase 3/7 activity

— publication PMC3794927, “A Novel Antidiabetic Drug, Fasiglifam/TAK-875, Acts as an Ago-Allosteric Modulator of FFAR1” (PLoS ONE, 2013)
